The values below come from publication PMC6278923 (Insect biochemistry and molecular biology, 2018).

SMILES strings stand for the structures.

The experiment deals with T1, RproOR1•RproOrco (Rhodnius prolixus, UniProt T1H977).
T1 sequence (T1H977 1-409): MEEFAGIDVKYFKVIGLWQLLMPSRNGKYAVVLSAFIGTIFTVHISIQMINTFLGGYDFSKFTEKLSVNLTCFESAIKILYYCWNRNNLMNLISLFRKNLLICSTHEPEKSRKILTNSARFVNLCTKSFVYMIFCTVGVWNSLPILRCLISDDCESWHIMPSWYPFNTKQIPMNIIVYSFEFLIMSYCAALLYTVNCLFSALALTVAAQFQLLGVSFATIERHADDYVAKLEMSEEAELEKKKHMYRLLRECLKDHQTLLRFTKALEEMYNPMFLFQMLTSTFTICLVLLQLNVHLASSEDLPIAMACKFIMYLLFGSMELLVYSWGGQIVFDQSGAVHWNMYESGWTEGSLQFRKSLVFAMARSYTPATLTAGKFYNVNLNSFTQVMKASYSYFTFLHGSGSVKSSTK
The experiment in a line: two-electrode voltage clamp, Xenopus oocytes. To be noted: agonist; -70 mV; coexpressed with RproOrco. The class given is cell-based.

For `CC/C=C\CCOC(C)=O` [(Z)-3-hexenyl acetate], the “two-electrode voltage clamp, Xenopus oocytes” value is given as “moderate responses to 3-methyl-1-butanol, methyl butyrate, (Z)-3-hexenyl acetate”.

As for `CCCCC=O` [pentanal], the “two-electrode voltage clamp, Xenopus oocytes” value is given as “moderate responses to 3-methyl-1-butanol, methyl butyrate, (Z)-3-hexenyl acetate, pentanal”.
